Measurements reported in the supplement of paper PMC10307832.

Columns and labels:
Assay in all cases: relative viability (nuclei count vs DMSO), 5 days (fraction); higher = more cells survive
XAV939 = compound: Oc1nc(-c2ccc(C(F)(F)F)cc2)nc2c1CSCC2 [XAV939]
Summary of the method: (§1)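 On vehicle-anchored 1536-well plates, lung cancer cell lines held overnight at 37 °C were pinned with five library-drug doses (not always all listed) spaced by √10. With no medium change over 5 days, they were then fixed, permeabilised and Hoechst-stained in one step and imaged at 4×. MetaXpress counted nuclei, and viability is the median across plates of treated-well over vehicle-well nuclei. Acceptance needed control CV below 25% and at least one doubling.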

Navitoclax = compound: CC1(C)CCC(c2ccc(Cl)cc2)=C(CN2CCN(c3ccc(C(=O)NS(=O)(=O)c4ccc(N[C@H](CCN5CCOCC5)CSc5ccccc5)c(S(=O)(=O)C(F)(F)F)c4)cc3)CC2)C1 [Navitoclax]
Summary of the method: as §1

C-75 = compound: CCCCCCCC[C@H]1[C@@H](C(=C)C(=O)O1)C(=O)O [C-75]
Summary of the method: as §1

[1] = compound: O=C(O)c1ccc(-c2c[nH]c3ncc(-c4ccccc4)cc23)cc1C1CCCC1
Summary of the method: as §1

AZD7762 = compound: NC(=O)Nc1cc(-c2cccc(F)c2)sc1C(=O)N[C@H]1CCCNC1 [AZD7762]
Summary of the method: as §1

Cell Line	relative viability (XAV939; 0.08 µM)	relative viability (XAV939; 0.253 µM)	relative viability (XAV939; 0.8 µM)	relative viability (XAV939; 2.53 µM)	relative viability (Navitoclax; 0.005 µM)	relative viability (Navitoclax; 0.01581 µM)	relative viability (Navitoclax; 0.05 µM)	relative viability (Navitoclax; 0.1581 µM)	relative viability (Navitoclax; 0.5 µM)	relative viability (Navitoclax; 0.5 µM, anchor plate)	relative viability (C-75; 0.08 µM)	relative viability (C-75; 0.253 µM)	relative viability (C-75; 0.8 µM)	relative viability (C-75; 2.53 µM)	relative viability (C-75; 8 µM)	relative viability ([1]; 0.04 µM)	relative viability ([1]; 0.1265 µM)	relative viability ([1]; 0.4 µM)	relative viability ([1]; 1.265 µM)	relative viability (AZD7762; 0.01 µM)	relative viability (AZD7762; 0.03162 µM)	relative viability (AZD7762; 0.1 µM)	relative viability (AZD7762; 0.2 µM, anchor plate)	relative viability (AZD7762; 0.3162 µM)	relative viability (AZD7762; 1 µM)
NCI-H2170	0.937	0.886	0.939	0.785	1.02	1.06	1.06	0.935	0.748	0.636	0.984	0.94	0.943	0.913	0.954	1.01	1	0.937	0.904	1	1.01	1.02	0.858	0.989	0.972
NCI-H2228	1.01	0.811	0.921	0.88	0.965	1.01		0.968	1.11	0.968	0.969	1.09	0.952	0.986	1.06	0.942	1.09	0.924	0.639	1.17	0.982	0.997		0.649	0.361
NCI-H2342	1.04	0.794	0.781	0.508	1.01	0.999	0.938	0.961	1.01		0.924	0.988	0.833	0.857	1.04	0.943	0.985	0.979	1.1	0.903	1.1	0.983	0.514	0.997	1.04
NCI-H2347	1.19	0.978	0.964	0.84	1.02	1.12	0.906	1.02	1.03	0.757	0.991	1.09	0.973	0.862	1.02	1.1	1.08	1.02	0.906	1.16	1.04	1.24	0.812	1.21	0.922
NCI-H2405	1.03	0.978	0.966	0.993	0.984	1.11	0.996	1.03	0.93	0.845	1.01	0.737	0.948	0.872	1.07	0.998	1.13	0.977	0.741	1.02	1.11	1.02	0.763	0.953	0.585
NCI-H3122	1.01	0.936	1.02	0.966	1.01	0.965	1.06	0.989	0.972	1.01	1	1	0.996	0.692	0.992	0.986	1.04	0.959	0.946	1.01	1.02	1.01	0.983	0.88	1.04
PC-3 [JPC-3]	1.02	0.924	1.02	0.947	1.03	1.07	1.08	1.01	1.02	0.816	0.961	0.97	0.994	0.995	1.16	1.07	1.09	1	0.945	1.03	1.06	1.1	0.897	1.05	0.931
